According to patent publication US9173891B2, “Treatment of ovarian cancer using an anticancer agent conjugated to an angiopep-2 analog” (Angiochem, Inc., priority 2009, dated 2015):

Tests used:
[1] = tested on: metastatic ovarian cancer; test: Prior standard chemotherapy of the ovarian cancer patient before the ANG1005 trial; type: in vivo, human; settings: prior therapy 2007-2008
Experimental: The patient was originally diagnosed in November 2006 with ovarian cancer. […] From February 2008 to March 2008, the patient received a combination of Gemzar® (gemcitabine) and […]® (topotecan). The patient was again given a combination of Taxotere® (docetaxel) and carboplatin from March 2008 until July 2008. In November 2008, the patient was administered Doxil® (doxorubicin).

[2] = target: T1, LRP receptor (Rattus norvegicus, UniProt G3V928); test: In situ rat brain perfusion, uptake inhibition by LRP ligands or Angiopep peptides; type: in vivo; settings: for brain uptake of an Angiopep conjugate: FIG. 6B
T1 construct: from tissue; host or cells: brain of male Sprague Dawley rats (in situ perfusion)
T1 sequence (G3V928 20-4545): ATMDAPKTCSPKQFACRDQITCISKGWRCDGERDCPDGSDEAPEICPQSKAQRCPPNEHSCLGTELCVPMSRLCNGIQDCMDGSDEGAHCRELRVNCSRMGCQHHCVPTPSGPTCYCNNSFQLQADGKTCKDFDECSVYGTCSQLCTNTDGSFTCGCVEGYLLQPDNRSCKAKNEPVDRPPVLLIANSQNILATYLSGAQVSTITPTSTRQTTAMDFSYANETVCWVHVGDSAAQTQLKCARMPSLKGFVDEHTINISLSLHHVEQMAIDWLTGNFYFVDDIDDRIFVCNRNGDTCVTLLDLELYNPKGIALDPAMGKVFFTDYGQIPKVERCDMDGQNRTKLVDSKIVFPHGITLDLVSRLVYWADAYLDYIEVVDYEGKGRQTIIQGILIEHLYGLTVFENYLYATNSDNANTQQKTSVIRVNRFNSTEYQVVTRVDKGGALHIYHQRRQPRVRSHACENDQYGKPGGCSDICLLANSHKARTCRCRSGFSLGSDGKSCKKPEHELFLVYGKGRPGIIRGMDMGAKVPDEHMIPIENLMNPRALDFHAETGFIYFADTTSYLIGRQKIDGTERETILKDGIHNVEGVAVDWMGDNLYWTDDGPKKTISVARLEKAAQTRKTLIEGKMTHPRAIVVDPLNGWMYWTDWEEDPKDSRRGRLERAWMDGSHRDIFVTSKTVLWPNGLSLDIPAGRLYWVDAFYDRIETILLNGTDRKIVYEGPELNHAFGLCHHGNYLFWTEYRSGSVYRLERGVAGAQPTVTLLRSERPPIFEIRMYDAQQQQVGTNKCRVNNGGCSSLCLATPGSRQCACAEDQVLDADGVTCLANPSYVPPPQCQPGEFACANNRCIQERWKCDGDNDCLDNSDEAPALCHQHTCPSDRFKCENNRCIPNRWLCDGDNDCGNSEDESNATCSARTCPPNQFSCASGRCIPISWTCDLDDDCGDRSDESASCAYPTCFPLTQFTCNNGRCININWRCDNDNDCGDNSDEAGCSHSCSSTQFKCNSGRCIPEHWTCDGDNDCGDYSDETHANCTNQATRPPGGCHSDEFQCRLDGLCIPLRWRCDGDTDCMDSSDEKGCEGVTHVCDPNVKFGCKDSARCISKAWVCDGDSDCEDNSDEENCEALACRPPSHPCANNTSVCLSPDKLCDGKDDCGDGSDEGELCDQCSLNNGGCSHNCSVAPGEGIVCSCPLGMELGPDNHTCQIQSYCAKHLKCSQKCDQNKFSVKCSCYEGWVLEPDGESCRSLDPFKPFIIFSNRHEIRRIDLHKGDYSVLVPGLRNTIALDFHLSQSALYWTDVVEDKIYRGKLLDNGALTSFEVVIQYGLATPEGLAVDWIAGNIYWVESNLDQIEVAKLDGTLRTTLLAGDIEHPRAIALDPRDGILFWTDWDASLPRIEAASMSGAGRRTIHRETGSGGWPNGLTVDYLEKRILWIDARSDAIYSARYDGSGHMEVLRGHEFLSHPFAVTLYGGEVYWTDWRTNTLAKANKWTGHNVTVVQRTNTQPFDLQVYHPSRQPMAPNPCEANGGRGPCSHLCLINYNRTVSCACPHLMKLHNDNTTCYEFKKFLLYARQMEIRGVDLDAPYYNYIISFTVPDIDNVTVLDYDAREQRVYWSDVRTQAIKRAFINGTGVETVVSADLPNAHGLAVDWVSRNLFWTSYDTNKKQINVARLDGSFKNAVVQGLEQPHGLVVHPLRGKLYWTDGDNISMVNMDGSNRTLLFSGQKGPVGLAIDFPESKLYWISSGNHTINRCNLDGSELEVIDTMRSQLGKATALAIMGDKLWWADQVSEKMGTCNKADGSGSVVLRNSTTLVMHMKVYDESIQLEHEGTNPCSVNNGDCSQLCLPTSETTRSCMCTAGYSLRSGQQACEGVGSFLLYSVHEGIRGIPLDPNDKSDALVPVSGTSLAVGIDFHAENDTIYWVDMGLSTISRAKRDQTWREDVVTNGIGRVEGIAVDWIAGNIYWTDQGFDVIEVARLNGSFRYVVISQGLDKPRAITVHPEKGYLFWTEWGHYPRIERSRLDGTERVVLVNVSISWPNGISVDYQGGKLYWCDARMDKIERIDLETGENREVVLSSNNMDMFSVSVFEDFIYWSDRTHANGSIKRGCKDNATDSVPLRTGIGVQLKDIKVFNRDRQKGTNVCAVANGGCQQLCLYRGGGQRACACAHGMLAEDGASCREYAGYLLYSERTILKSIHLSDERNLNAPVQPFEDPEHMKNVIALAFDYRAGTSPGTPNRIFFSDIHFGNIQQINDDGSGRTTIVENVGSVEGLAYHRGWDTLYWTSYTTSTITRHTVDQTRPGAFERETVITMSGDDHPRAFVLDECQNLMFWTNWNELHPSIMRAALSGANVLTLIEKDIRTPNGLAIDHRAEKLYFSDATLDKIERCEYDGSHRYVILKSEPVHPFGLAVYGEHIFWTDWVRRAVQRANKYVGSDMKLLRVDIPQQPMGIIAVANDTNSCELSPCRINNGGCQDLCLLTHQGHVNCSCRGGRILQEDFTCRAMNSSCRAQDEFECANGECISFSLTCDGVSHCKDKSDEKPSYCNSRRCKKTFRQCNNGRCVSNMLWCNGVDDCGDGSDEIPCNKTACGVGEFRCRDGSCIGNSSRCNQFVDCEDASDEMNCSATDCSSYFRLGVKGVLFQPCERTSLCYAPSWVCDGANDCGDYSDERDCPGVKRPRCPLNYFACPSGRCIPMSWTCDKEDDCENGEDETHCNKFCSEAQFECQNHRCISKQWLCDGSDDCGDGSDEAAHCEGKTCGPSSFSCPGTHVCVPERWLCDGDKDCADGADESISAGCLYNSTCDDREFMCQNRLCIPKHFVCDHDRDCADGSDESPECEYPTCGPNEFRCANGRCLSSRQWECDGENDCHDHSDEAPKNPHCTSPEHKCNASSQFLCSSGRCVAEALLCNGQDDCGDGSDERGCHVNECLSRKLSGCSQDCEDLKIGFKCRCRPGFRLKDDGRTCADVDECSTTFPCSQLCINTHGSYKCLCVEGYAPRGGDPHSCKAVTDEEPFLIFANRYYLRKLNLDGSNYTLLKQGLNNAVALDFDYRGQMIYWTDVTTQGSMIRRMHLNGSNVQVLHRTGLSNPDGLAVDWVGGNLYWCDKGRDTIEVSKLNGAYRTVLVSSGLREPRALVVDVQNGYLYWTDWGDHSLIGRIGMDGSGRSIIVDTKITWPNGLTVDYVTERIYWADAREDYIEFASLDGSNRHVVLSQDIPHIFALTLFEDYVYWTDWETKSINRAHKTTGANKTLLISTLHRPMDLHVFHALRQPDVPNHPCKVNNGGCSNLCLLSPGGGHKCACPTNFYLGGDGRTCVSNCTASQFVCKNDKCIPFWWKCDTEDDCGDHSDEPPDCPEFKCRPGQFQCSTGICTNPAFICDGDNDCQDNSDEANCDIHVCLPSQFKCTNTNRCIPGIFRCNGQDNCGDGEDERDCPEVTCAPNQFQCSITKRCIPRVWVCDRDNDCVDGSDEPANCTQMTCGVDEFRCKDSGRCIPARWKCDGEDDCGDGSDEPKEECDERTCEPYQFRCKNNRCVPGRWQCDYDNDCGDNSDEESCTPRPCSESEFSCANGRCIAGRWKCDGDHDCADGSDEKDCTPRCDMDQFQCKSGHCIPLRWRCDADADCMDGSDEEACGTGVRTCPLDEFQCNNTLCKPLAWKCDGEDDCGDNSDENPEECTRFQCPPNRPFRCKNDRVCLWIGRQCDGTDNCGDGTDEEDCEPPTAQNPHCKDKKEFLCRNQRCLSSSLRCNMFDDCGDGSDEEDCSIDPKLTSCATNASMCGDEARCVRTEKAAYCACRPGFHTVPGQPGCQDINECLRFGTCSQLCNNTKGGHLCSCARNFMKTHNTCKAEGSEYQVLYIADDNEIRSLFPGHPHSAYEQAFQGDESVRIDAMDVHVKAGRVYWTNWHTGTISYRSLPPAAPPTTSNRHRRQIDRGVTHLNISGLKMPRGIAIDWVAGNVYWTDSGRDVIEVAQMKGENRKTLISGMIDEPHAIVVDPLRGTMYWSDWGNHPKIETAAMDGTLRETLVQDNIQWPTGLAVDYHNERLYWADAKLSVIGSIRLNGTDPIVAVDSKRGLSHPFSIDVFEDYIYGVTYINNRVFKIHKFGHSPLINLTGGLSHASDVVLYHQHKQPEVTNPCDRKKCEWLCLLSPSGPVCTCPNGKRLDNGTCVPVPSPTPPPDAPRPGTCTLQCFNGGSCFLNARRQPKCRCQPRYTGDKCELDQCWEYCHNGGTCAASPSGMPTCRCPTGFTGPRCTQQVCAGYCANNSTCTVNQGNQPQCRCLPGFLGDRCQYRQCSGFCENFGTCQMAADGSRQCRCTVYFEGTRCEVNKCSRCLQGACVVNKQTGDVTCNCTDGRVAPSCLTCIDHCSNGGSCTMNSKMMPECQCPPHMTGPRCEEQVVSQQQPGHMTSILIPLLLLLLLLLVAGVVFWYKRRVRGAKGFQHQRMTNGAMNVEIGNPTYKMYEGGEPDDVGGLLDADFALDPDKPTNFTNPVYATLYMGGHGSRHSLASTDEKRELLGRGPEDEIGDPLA
Source text: The methods of the invention may be especially useful in treating cancers having cells that express low density lipoprotein-related protein (LRP) receptor. The LRP receptor is expressed on the surface of cells, and is capable of binding to various substrates including aprotinin, β-amyloid, tissue plasminogen activator (tPA), melano-transferrin, and receptor associated peptide (RAP). The peptides described herein were designed based on the consensus kunitz-domain sequences that act as LRP receptor ligands (see, e.g., PCT Publication No. WO 2004/060403). Uptake of the conjugates including Angiopep-1 or Angiopep-2 is inhibited by LRP ligands, thus indicating involvement of LRP in this process. […] Angiopep-2 (10 or 100 μM) is similarly able to reduce uptake of the conjugates into cells (FIGS. 6A and 6B).
The results described in FIGS. 4A and 4B were obtained using an in situ rat brain perfusion. Male Sprague Dawley rats were anesthetized with […] i.p., of sodium pentobarbital (Nembutal, Abbott Laboratories, North Chicago, Ill., USA). The neck region was shaved and the common carotid artery was exposed. The external carotid artery was ligated, but the pterygopalatine artery was not occluded. A PE-60 catheter filled with heparinized 0.9% saline (100 IU/mL) was inserted into the common carotid artery upon ligation. A heating pad linked to YSI feedback controller device (Yellow Springs Instruments, Yellow Springs, Ohio, USA) was used to maintain the rat body temperature at 37° C. The PE-60 catheter was attached to a glass syringe filled with the tracer; with or without inhibitors, in a bicarbonate-buffered physiological saline (Smith Q R., Pharm Biotechnol 8:285-307, 1996) mounted on a Harvard infusion pump (Harvard Biosciences, South Natick, Mass., USA) maintained at 37° C. Dual-labeled experiments were performed for studying the brain uptake. [^14C]Sucrose was used as a vascular volume marker. Perfusion was started upon severing the heart to stop blood flow to the brain. […] The samples were weighed and counted using the gamma counter (Cobra 600) to determine the ^125I labeled drug. […]

Compound | course of patient's cancer after receiving the agent [1] | other results
CC(=O)O[C@@]12CO[C@@H]1C[C@H](O)[C@@]1(C)C(=O)[C@H](O)C3=C(C)[C@@H](OC(=O)[C@H](O)[C@@H](NC(=O)OC(C)(C)C)c4ccccc4)C[C@@](O)([C@@H](OC(=O)c4ccccc4)[C@H]21)C3(C)C [docetaxel] | continued to progress | 
Angiopep-2: peptide vector, sequence TFFYGGSRGKRNNFKTEEY |  | uptake of the conjugates into cells ([2]; Angiopep-2 10 or 100 μM, FIG. 6A): reduce uptake
COc1cccc2c1C(=O)c1c(O)c3c(c(O)c1C2=O)C[C@@](O)(C(=O)CO)C[C@@H]3O[C@H]1C[C@H](N)[C@H](O)[C@H](C)O1 [doxorubicin] | continued to progress | 
N.N.O=C([O-])C1(C(=O)[O-])CCC1.[Pt+2] [carboplatin] | continued to progress | 
RAP: LRP ligand, receptor associated protein (RAP) |  | brain uptake of an Angiopep conjugate ([2]; RAP 200 nM co-perfused): reducing brain uptake
Nc1ccn([C@@H]2O[C@H](CO)[C@@H](O)C2(F)F)c(=O)n1 [gemcitabine] | continued to progress | 
aprotinin |  | brain uptake of an Angiopep conjugate ([2]; aprotinin 10 μM co-perfused): reducing brain uptake
CC[C@@]1(O)C(=O)OCc2c1cc1n(c2=O)Cc2cc3c(CN(C)C)c(O)ccc3nc2-1 [topotecan] | continued to progress | 
